In PMC2909366 (Journal of biological inorganic chemistry : JBIC : a …, 2010):
pKd: −log10 of the molar value.

Legend:
chlorite dismutase (Cld) [1] = molecular target: T1, chlorite dismutase (Cld) (Dechloromonas aromatica (nom. nud.), UniProt Q47CX0); assay: biochemical
chlorite dismutase (Cld) [2] = molecular target: T1, chlorite dismutase (Cld); assay: X-ray co-crystal structure; format: binding

T1 sequence (Q47CX0 35-282): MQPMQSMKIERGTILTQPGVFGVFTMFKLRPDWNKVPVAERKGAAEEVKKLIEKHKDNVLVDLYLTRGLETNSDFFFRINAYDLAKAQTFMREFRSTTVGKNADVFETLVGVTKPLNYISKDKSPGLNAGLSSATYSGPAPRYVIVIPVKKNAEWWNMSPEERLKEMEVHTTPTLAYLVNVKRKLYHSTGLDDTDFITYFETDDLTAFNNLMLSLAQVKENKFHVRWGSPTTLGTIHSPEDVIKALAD

| pKd (chlorite dismutase (Cld) [1]) | SMILES | pKd (chlorite dismutase (Cld) [2]) |
| --- | --- | --- |
| 1.44 | CC(=O)O [acetate] | – |
| – | O=NO [nitrite] | 2.95 |
